Laboratory results from paper PMC3214022, “Plasmodium falciparum Parasites Are Killed by a Transition State Analogue of Purine Nucleoside Phosphorylase in a Primate Animal Model” (PLoS ONE, 2011).
Where “and” joins values, the source holds several entries; their conditions need not be identical. Equal values may be shown once.

Experiment: Weights, CBC and blood chemistry, Table S1 sheet PD-1 (efficacy study in P. falciparum-infected Aotus)
Assay type: in vivo, Aotus lemurinus lemurinus
Details: IV 10 mg/kg once a day/3 days
Experimental: Laboratory bred Aotus lemurinus lemurinus monkeys (0.75–0.89 kg) were maintained as described. […] Blood samples were collected before the treatment started (t = 0), 0.05 h, 0.5 h, 1 h, 2 h, 6 h, 24 h, 48 h, and 6, 12 and 18 days after the first dose from each monkey and processed as described below. Pharmacokinetic parameters were calculated using PKSolver. For efficacy studies, Aotus monkeys were inoculated intravenously with 5×10^6 parasites of the FVO strain of P. falciparum in an approved treatment protocol. […] Parasitaemia was determined by Giemsa-stained thick blood smears prepared daily from the marginal ear vein [41]. Blood samples were collected from each monkey and transferred to tubes containing lithium heparin, centrifuged and both plasma and blood cells were frozen at −80 °C until analysis. Animals received a physical examination and blood chemistry profiles were monitored after treatment as described previously. Any monkey not responding appropriately to treatment was cured of its infection with mefloquine (40 mg kg^−1). […] The day of clearance is defined as the first of three consecutive days in which the thick blood films are parasite negative. The day of recrudescence is the first of three consecutive days of positive thick blood films after a period of clearance. Suppression is defined as a transient decrease in the parasite count post-treatment without clearance.

Nc1nc2c(CN3CC(O)C(CO)C3)c[nH]c2c(=O)[nH]1 (centres unmarked) [BCX4945, 4′-deaza-1′-aza-2′-deoxy-1′-(9-methylene)-Immucillin-G]
Blood Urea Nitrogen (day 9, 10 mg/kg): 10.65 mg/dL and 14.3 mg/dL and 10.85 mg/dL and 10.75 mg/dL and 11.6 mg/dL and 17.75 mg/dL
Creatinine (day 9, 10 mg/kg): 0.59 mg/dL and 0.587 mg/dL and 0.522 mg/dL and 0.609 mg/dL and 0.7 mg/dL and 0.665 mg/dL
Erythrocytes (day 9, 10 mg/kg): 4.53e+06 µL⁻¹ and 4.52e+06 µL⁻¹ and 3.97e+06 µL⁻¹ and 3.87e+06 µL⁻¹ and 3.32e+06 µL⁻¹ and 5.16e+06 µL⁻¹
Granulocytes (%) (day 9, 10 mg/kg): 19.7% and 21.4% and 19.2% and 30% and 21.1% and 36.1%
Hematocrit (day 9, 10 mg/kg): 36.1% and 34.4% and 30.6% and 31.6% and 28.1% and 40.4%
Hemoglobin (day 9, 10 mg/kg): 12 g/dL and 11.8 g/dL and 10.3 g/dL and 10.5 g/dL and 9.3 g/dL and 13.8 g/dL
Leucocytes (day 9, 10 mg/kg): 16700 µL⁻¹ and 22100 µL⁻¹ and 19500 µL⁻¹ and 11100 µL⁻¹ and 19200 µL⁻¹ and 19700 µL⁻¹
Lymphocytes (%) (day 9, 10 mg/kg): 65.5% and 44.6% and 64.7% and 56.2% and 66.9% and 50.4%
Mean Corpuscular Hemoglobin (day 9, 10 mg/kg): 26.5 pg and 26.1 pg and 25.9 pg and 27.1 pg and 28.1 pg and 26.7 pg
Mean Corpuscular Volume (day 9, 10 mg/kg): 79.7 fL and 76.1 fL and 77.1 fL and 81.8 fL and 84.7 fL and 78.2 fL
Mean Hemoglobin Content (day 9, 10 mg/kg): 33.3 g/dL and 34.4 g/dL and 33.6 g/dL and 33.2 g/dL and 33.1 g/dL and 34.1 g/dL
Mean Platelet Volume (day 9, 10 mg/kg): 11.9 fL and 15.2 fL and 12.6 fL and 13.1 fL and 13.2 fL and 13.5 fL
Platelets (day 9, 10 mg/kg): 321000 µL⁻¹ and 270000 µL⁻¹ and 322000 µL⁻¹ and 237000 µL⁻¹ and 267000 µL⁻¹ and 336000 µL⁻¹
Red Cell Distribution Width (day 9, 10 mg/kg): 12.8% and 11.8% and 11.5% and 13.6% and 12.1%
Reticulocytes (day 9, 10 mg/kg): 1.7% and 1.2% and 2.3% and 1.8% and 1.3% and 1.9%
WEIGHT (day 9, 10 mg/kg): 780 g and 698 g and 888 g and 790 g and 930 g and 685 g
Creatinine (day 12, 10 mg/kg): 0.555 mg/dL and 0.539 mg/dL and <0.500 mg/dL and 0.508 mg/dL and 0.604 mg/dL and 0.605 mg/dL
Erythrocytes (day 12, 10 mg/kg): 4.01e+06 µL⁻¹ and 4.03e+06 µL⁻¹ and 3.46e+06 µL⁻¹ and 5.43e+06 µL⁻¹ and 2.96e+06 µL⁻¹ and 4.66e+06 µL⁻¹
Glutamate Pyruvate Transaminase (day 12, 10 mg/kg): 41.8 U/L and 40.8 U/L and 52.6 U/L and 38.7 U/L and 64.9 U/L and 39.6 U/L
Hematocrit (day 12, 10 mg/kg): 31.6% and 31.2% and 27.1% and 43.9% and 26.3% and 36.3%
Hemoglobin (day 12, 10 mg/kg): 10.9 g/dL and 10.7 g/dL and 9.2 g/dL and 14.9 g/dL and 8.6 g/dL and 12.7 g/dL
Leucocytes (day 12, 10 mg/kg): 36300 µL⁻¹ and 31000 µL⁻¹ and 41200 µL⁻¹ and 29300 µL⁻¹ and 42600 µL⁻¹ and 45600 µL⁻¹
Lymphocytes (%) (day 12, 10 mg/kg): 72.6% and 57.1% and 73% and 56% and 73.9% and 60.8%
Lymphocytes (x 103/ul) (day 12, 10 mg/kg): 26.4 x 103/ul and 17.7 x 103/ul and 30.1 x 103/ul and 16.4 x 103/ul and 31.5 x 103/ul and 27.7 x 103/ul
Mean Corpuscular Hemoglobin (day 12, 10 mg/kg): 27.2 pg and 26.5 pg and 27.5 pg and 29 pg and 27.4 pg
Mean Corpuscular Volume (day 12, 10 mg/kg): 78.8 fL and 77.3 fL and 78.4 fL and 80.9 fL and 88.8 fL and 78 fL
Mean Hemoglobin Content (day 12, 10 mg/kg): 34.5 g/dL and 34.3 g/dL and 33.8 g/dL and 34.1 g/dL and 32.7 g/dL and 35.1 g/dL
Mean Platelet Volume (day 12, 10 mg/kg): 17.3 fL and 13.7 fL and 12.9 fL and 18.2 fL and 11.1 fL
Monocytes (x 103/ul) (day 12, 10 mg/kg): 3.5 x 103/ul and 4.3 x 103/ul and 6 x 103/ul and 4.1 x 103/ul
Red Cell Distribution Width (day 12, 10 mg/kg): 13.5% and 12.4% and 12.7% and 11.4% and 14.8% and 12.2%
Reticulocytes (day 12, 10 mg/kg): 1.7% and 2.1% and 2.5% and 2.6% and 1.3%
WEIGHT (day 12, 10 mg/kg): 766 g and 680 g and 832 g and 849 g and 684 g
Blood Urea Nitrogen (day 19, 10 mg/kg): 19.25 mg/dL and <10.0 mg/dL and 15.3 mg/dL and 13.8 mg/dL and 15.4 mg/dL and 13.5 mg/dL
Creatinine (day 19, 10 mg/kg): 0.514 mg/dL and <0.500 mg/dL and 0.504 mg/dL and 0.562 mg/dL and 0.507 mg/dL
Erythrocytes (day 19, 10 mg/kg): 4.88e+06 µL⁻¹ and 4.44e+06 µL⁻¹ and 4.27e+06 µL⁻¹ and 4e+06 µL⁻¹ and 4.12e+06 µL⁻¹ and 5.22e+06 µL⁻¹
Glutamate Pyruvate Transaminase (day 19, 10 mg/kg): 29 U/L and 20.1 U/L and 31.3 U/L and 23.9 U/L and 26.3 U/L and 21.8 U/L
Hemoglobin (day 19, 10 mg/kg): 14.2 g/dL and 11.9 g/dL and 11.8 g/dL and 12.5 g/dL
Leucocytes (day 19, 10 mg/kg): 30100 µL⁻¹ and 23700 µL⁻¹ and 16700 µL⁻¹ and 22900 µL⁻¹ and 19600 µL⁻¹ and 17100 µL⁻¹
Lymphocytes (%) (day 19, 10 mg/kg): 87.7% and 48.9% and 76.9% and 73.7% and 77.1% and 48.7%
Mean Corpuscular Hemoglobin (day 19, 10 mg/kg): 29 pg and 26.8 pg and 27.5 pg and 29.7 pg and 30.3 pg and 27.1 pg
Mean Corpuscular Volume (day 19, 10 mg/kg): 87.8 fL and 79.1 fL and 84.9 fL and 91.2 fL and 93.4 fL and 81.3 fL
Mean Hemoglobin Content (day 19, 10 mg/kg): 33.1 g/dL and 33.9 g/dL and 32.4 g/dL and 32.6 g/dL and 32.5 g/dL and 33.4 g/dL
Mean Platelet Volume (day 19, 10 mg/kg): 15.6 fL and 12.8 fL and 12.3 fL and 14.4 fL and 14.8 fL and 13.8 fL
Monocytes (%) (day 19, 10 mg/kg): 5.6% and 6.4% and 11.4% and 6.6%
Red Cell Distribution Width (day 19, 10 mg/kg): 23.9% and 15.2% and 21.7% and 23.4% and 22.5% and 17.2%
Reticulocytes (day 19, 10 mg/kg): 1.5% and 2% and 2.3% and 2.2%
WEIGHT (day 19, 10 mg/kg): 777 g and 684 g and 852 g and 754 g and 875 g and 690 g
Blood Urea Nitrogen (day 25, 10 mg/kg): 27.95 mg/dL and 24.85 mg/dL and 23.3 mg/dL and 19.35 mg/dL and 20.25 mg/dL
Creatinine (day 25, 10 mg/kg): <0.500 mg/dL and 0.563 mg/dL and 0.659 mg/dL and 0.585 mg/dL
Erythrocytes (day 25, 10 mg/kg): 4.42e+06 µL⁻¹ and 5.34e+06 µL⁻¹ and 5.57e+06 µL⁻¹ and 4.57e+06 µL⁻¹ and 4.75e+06 µL⁻¹
Glutamate Pyruvate Transaminase (day 25, 10 mg/kg): 21.7 U/L and 23.8 U/L and 25 U/L and 26.2 U/L
Hematocrit (day 25, 10 mg/kg): 35.7% and 44.6% and 40.2% and 42.6%
Hemoglobin (day 25, 10 mg/kg): 12.1 g/dL and 15.2 g/dL and 15.3 g/dL and 13.4 g/dL and 14.4 g/dL
Leucocytes (day 25, 10 mg/kg): 11500 µL⁻¹ and 12400 µL⁻¹ and 15400 µL⁻¹ and 12700 µL⁻¹ and 10500 µL⁻¹
Lymphocytes (%) (day 25, 10 mg/kg): 72.6% and 81.9% and 63.9% and 71.1% and 64.3%
Lymphocytes (x 103/ul) (day 25, 10 mg/kg): 8.3 x 103/ul and 10.2 x 103/ul and 9.8 x 103/ul and 9 x 103/ul and 6.8 x 103/ul
Mean Corpuscular Hemoglobin (day 25, 10 mg/kg): 27.3 pg and 28.5 pg and 27.5 pg and 29.3 pg and 30.2 pg
Mean Corpuscular Volume (day 25, 10 mg/kg): 80.8 fL and 83.6 fL and 80.1 fL and 88.1 fL and 89.5 fL
Mean Hemoglobin Content (day 25, 10 mg/kg): 33.8 g/dL and 34.1 g/dL and 34.3 g/dL and 33.2 g/dL and 33.7 g/dL
Mean Platelet Volume (day 25, 10 mg/kg): 12 fL and 13 fL and 11 fL
Monocytes (%) (day 25, 10 mg/kg): 11.3% and 6.2% and 5.7% and 7.9% and 8.2%
Monocytes (x 103/ul) (day 25, 10 mg/kg): 1.3 x 103/ul and 0.8 x 103/ul and 0.9 x 103/ul and 1 x 103/ul
Platelets (day 25, 10 mg/kg): 342000 µL⁻¹ and 291000 µL⁻¹ and 454000 µL⁻¹ and 397000 µL⁻¹ and 336000 µL⁻¹
Red Cell Distribution Width (day 25, 10 mg/kg): 16.7% and 18.3% and 15.7% and 19.1% and 17.5%
Reticulocytes (day 25, 10 mg/kg): 2.1% and 1.8% and 1.7% and 2.6% and 2.4%
WEIGHT (day 25, 10 mg/kg): 825 g and 760 g and 690 g and 687 g
Blood Urea Nitrogen (day 26): 16.65 mg/dL
Creatinine (day 26): 0.537 mg/dL
Erythrocytes (day 26): 4.54e+06 µL⁻¹
Glutamate Pyruvate Transaminase (day 26): 18.2 U/L
Granulocytes (%) (day 26): 46.7%
Granulocytes (x 103/ul) (day 26): 7.7 x 103/ul
Hematocrit (day 26): 35.9%
Hemoglobin (day 26): 12 g/dL
Leucocytes (day 26): 16500 µL⁻¹
Lymphocytes (%) (day 26): 45.8%
Lymphocytes (x 103/ul) (day 26): 7.6 x 103/ul
Mean Corpuscular Hemoglobin (day 26): 26.3 pg
Mean Corpuscular Volume (day 26): 78.9 fL
Mean Hemoglobin Content (day 26): 33.4 g/dL
Mean Platelet Volume (day 26): 12.5 fL
Monocytes (%) (day 26): 7.5%
Monocytes (x 103/ul) (day 26): 1.2 x 103/ul
Platelets (day 26): 314000 µL⁻¹
Red Cell Distribution Width (day 26): 16.2%
Reticulocytes (day 26): 1.9%
WEIGHT (day 26): 910 g
Creatinine (day -2, 10 mg/kg): 0.623 mg/dL and 0.539 mg/dL and 0.583 mg/dL and 0.677 mg/dL and 0.579 mg/dL and 0.564 mg/dL
Erythrocytes (day -2, 10 mg/kg): 6.51e+06 µL⁻¹ and 6.11e+06 µL⁻¹ and 6.26e+06 µL⁻¹ and 5.03e+06 µL⁻¹ and 5.52e+06 µL⁻¹ and 5.2e+06 µL⁻¹
Hematocrit (day -2, 10 mg/kg): 50% and 47.6% and 40.6% and 44.3% and 42.4%
Hemoglobin (day -2, 10 mg/kg): 17.2 g/dL and 16.6 g/dL and 16.4 g/dL and 14.2 g/dL and 15.2 g/dL
Leucocytes (day -2, 10 mg/kg): 18500 µL⁻¹ and 15700 µL⁻¹ and 15900 µL⁻¹ and 16400 µL⁻¹ and 10600 µL⁻¹ and 21000 µL⁻¹
Mean Corpuscular Hemoglobin (day -2, 10 mg/kg): 26.4 pg and 27.2 pg and 26.3 pg and 28.2 pg and 27.5 pg and 33.1 pg
Mean Corpuscular Volume (day -2, 10 mg/kg): 76.8 fL and 78 fL and 76.1 fL and 80.7 fL and 80.2 fL and 81.5 fL
Mean Hemoglobin Content (day -2, 10 mg/kg): 34.4 g/dL and 34.9 g/dL and 34.5 g/dL and 34.3 g/dL and 40.6 g/dL
